From ChEMBL document CHEMBL5335812, “PSMA-targeted SMART molecules outfitted with SN38” (Bioorg Med Chem Lett, 2024)
Each block holds one compound with its values, some of them ahead of it. Activity calls are given as the source filed them. The calls are words filed in the database; no cut-off is given here.

Key:
[1] = Stability of the compound assessed as kinetic half life at pH 5.5; assay type: physicochemical; details: buffer
[2] = Stability of the compound assessed as kinetic half life at pH 6; assay type: physicochemical; details: buffer
[3] = Stability of the compound assessed as kinetic half life at pH 5; assay type: physicochemical; details: buffer
[4] = Stability of the compound at pH 7.4; assay type: physicochemical; details: buffer
[5] = Stability of the compound assessed as hydrolysis at pH 7.4 measured after 8 hrs by 31P NMR; assay type: physicochemical; details: buffer, pH 7.4, 8 h
[6] = Stability of the compound assessed as kinetic half life at pH 4.5; assay type: physicochemical; details: buffer
PC-3 = test: Antiproliferative activity against human PC-3 cells with PSMA knockout assessed as reduction in cell viability incubated for 72 hrs by cellTiter-Glo Luminescent cell viability assay; assay type: functional, cell-based
[7] = Drug metabolism in human C4-2B cells expressing PSMA assessed as payload release incubated for 30 min by confocal microscopy; assay type: ADME, cell-based; details: lncap c4-2b, 0.5 h
LNCaP C4-2B = test: Antiproliferative activity against human C4-2B cells expressing PSMA assessed as reduction in cell viability incubated for 72 hrs by cellTiter-Glo Luminescent cell viability assay
[8] = Drug metabolism in human PC-3 cells with PSMA knockout assessed as intracellular SN38 release incubated for 30 min by confocal microscopy; assay type: ADME, cell-based; details: pc-3, 0.5 h
[9] = Stability of the compound assessed as payload release at pH 5.0 measured after 18 hrs by fluorescence based analysis; assay type: physicochemical; details: buffer, pH 5, 18 h
[10] = Stability of the compound assessed as payload release at pH 5.5 measured after 18 hrs by fluorescence based analysis; assay type: physicochemical; details: buffer, pH 5.5, 18 h
[11] = Stability of the compound assessed as payload release at pH 7.4 measured after 18 hrs by fluorescence based analysis; assay type: physicochemical; details: buffer, pH 7.4, 18 h

Structure (SMILES): CCc1c2c(nc3ccc(OC(=O)N(C)CCN(C)P(=O)(O)OCC[C@H](NC(=O)c4ccc(CN=[N+]=[N-])cc4)C(=O)O)cc13)-c1cc3c(c(=O)n1C2)COC(=O)[C@]3(O)CC
half-life [1]: 11 h
half-life [2]: 42 h
half-life [3]: 4.3 h
Stability [4]: Stable
Stability [5]: Stable
half-life [6]: 1.9 h

Structure (SMILES): CCc1c2c(nc3ccc(OC(=O)N(C)CCN(C)P(=O)(O)OCC[C@H](NC(=O)c4ccc(Cn5nnc6c5-c5ccccc5CN(C(=O)CCC(=O)NCCOCCOCCOCCOCCC(=O)NCCCCCC(=O)N[C@@H](CCC(=O)N[C@@H](CCCOP(=O)(O)N[C@@H](CCC(=O)O)C(=O)O)C(=O)O)C(=O)O)c5ccccc5-6)cc4)C(=O)O)cc13)-c1cc3c(c(=O)n1C2)COC(=O)[C@]3(O)CC
Activity (PC-3): inactive
Drug metabolism [7]: Metabolite_Detected
IC50 (LNCaP C4-2B): 3 nM
Drug metabolism [8]: Metabolite_Notdetected

Activity [9]: 25%
Activity [10]: ~ 25%
Stability [11]: Stable
Structure (SMILES): CCc1c2c(nc3ccc(O)cc13)-c1cc3c(c(=O)n1C2)COC(=O)[C@]3(O)CC [7-ETHYL-10-HYDROXYCAMPTOTHECIN]
